According to ChEMBL document CHEMBL1201862, “PubChem BioAssay data set” (2004):
Calls of active or inactive are those of the source.

Assays:
[1] = Luminescence Cell-Based Dose Confirmation HTS to Identify Activators of 5'UTR Stem-Loop Driven Alpha-Synuclein mRNA Translation in H4 Neuroglioblastoma Cells. [Related pubchem assays: 1829 (Project Summary), 1814 (Primary HTS)]; type: functional
[2] = Luminescence Cell-Based Dose Response HTS to Identify Activators of Luciferase Translation or Activity in H4 […] Cells. [Related pubchem assays: 1829 (Project Summary), 1814 (Primary HTS)]; type: functional
H4 = experiment: Luminescence Cell-Based Dose Response HTS to Identify Activators of 5'UTR Stem-Loop Driven Prion Protein mRNA Translation in H4 Neuroglioblastoma Cells. [Related pubchem assays: 1829 (Project Summary), 1814 (Primary HTS)]; type: functional; conditions: Homo sapiens
[3] = target: Luciferin 4-monooxygenase (Photinus pyralis, UniProt P08659); experiment: firefly luciferase enzyme inhibitors, dose response, biochemical, luminescence (AID 1891)
[4] = Luminescence Cell-Based Dose Confirmation HTS to Identify Inhibitors of Platelet Dense Granule Release. [Related pubchem assays: 1663 (Primary HTS), 1678 (Summary of Project)]; type: functional
Cytochrome P450 2C19 = Cytochrome P450 2C19 (Homo sapiens, UniProt P33261); experiment: Cytochrome panel assay with activity outcomes. Panel member name: p450-cyp2c19 Compounds with AC50 equal or less than 10 uM are considered active; type: functional
Cytochrome P450 1A2 = target: T1, Cytochrome P450 1A2 (Homo sapiens, UniProt P05177);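 note: PubChem cytochrome P450 panel assay, CYP1A2 panel member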
T1 sequence (P05177 whole entry): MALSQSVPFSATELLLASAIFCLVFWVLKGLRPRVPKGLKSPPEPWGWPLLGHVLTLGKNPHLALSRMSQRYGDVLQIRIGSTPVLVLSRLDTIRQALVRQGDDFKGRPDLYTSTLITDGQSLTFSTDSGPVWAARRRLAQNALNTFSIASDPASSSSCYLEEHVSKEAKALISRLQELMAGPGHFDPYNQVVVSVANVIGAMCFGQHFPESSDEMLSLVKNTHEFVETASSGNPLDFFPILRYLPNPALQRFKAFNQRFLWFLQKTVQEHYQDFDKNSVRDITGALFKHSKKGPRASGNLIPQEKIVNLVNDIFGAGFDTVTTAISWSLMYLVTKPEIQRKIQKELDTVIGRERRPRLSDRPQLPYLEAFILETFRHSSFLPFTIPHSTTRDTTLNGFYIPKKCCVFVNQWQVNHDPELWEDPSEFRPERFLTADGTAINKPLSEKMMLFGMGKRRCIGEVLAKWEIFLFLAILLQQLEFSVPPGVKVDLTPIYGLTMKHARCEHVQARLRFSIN

[5] = target: T2, Corticotropin-releasing factor receptor 2/Corticotropin-releasing factor-binding protein (Homo sapiens, UniProt P24387+Q13324); experiment: Dose Response confirmation of uHTS hits for small molecule antagonists of the CRF-binding protein and CRF-R2 receptor complex.; type: functional; conditions: read-out: IC50_Mean
T2 sequence (Q13324 whole entry): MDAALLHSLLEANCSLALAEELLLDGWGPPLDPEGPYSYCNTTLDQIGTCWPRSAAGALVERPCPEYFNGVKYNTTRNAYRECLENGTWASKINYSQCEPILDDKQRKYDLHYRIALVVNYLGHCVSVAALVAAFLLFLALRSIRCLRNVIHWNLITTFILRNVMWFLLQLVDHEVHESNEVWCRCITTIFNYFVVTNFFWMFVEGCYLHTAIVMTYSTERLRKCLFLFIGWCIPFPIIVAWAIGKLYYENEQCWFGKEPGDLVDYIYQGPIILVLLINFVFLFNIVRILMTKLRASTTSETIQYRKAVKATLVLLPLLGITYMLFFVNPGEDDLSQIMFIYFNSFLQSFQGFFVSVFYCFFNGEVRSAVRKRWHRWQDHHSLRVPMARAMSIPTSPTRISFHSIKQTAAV
T2 sequence (P24387 whole entry): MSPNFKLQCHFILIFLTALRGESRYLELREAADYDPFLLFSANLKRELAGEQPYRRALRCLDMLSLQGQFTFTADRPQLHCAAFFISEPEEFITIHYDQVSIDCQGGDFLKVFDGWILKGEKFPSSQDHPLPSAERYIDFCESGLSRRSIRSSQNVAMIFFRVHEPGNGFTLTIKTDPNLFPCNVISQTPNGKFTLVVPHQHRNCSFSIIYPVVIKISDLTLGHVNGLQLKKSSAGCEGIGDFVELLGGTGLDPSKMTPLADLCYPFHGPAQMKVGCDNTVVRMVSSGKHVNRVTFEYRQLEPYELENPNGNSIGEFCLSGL

[6] = target: T2, Corticotropin-releasing factor receptor 2/Corticotropin-releasing factor-binding protein; experiment: activators of CRF receptor 2 with binding protein – uHTS hits, confirmation (AID 602473); type: functional; conditions: read-out: EC50_Mean
Fatty acid synthase [7] = target: T3, Fatty acid synthase (Homo sapiens, UniProt P49327); experiment: FAS thioesterase domain inhibitors, dose response, biochemical, endpoint fluorescence intensity, uHTS hits (AID 624327); type: functional;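 note: fluorescence from hydrolysis of an O-methyl fluorescein acyl ester substrate by the enzyme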
Fatty acid synthase [8] = target: T3, Fatty acid synthase; experiment: FAS thioesterase domain inhibitors, dose response, biochemical, kinetic fluorescence intensity (AID 624326); type: functional;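 note: rate of fluorescence rise from hydrolysis of a fluorogenic O-methyl fluorescein ester substrate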
[9] = target: T4, Heat shock factor protein 1 (Mus musculus, UniProt P38532); experiment: inhibition of MG132-induced HSE-luciferase signal, confirmation, cell-based, NIH3T3, luminescence, dose retest (AID 2382); type: functional;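 note: NIH3T3 fibroblasts with HSF1-driven luciferase reporter stressed by proteasome inhibitor MG132; luminescence from HSF1-driven luciferase expression after 8 hours of MG132 stress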
T4 sequence (P38532 whole entry): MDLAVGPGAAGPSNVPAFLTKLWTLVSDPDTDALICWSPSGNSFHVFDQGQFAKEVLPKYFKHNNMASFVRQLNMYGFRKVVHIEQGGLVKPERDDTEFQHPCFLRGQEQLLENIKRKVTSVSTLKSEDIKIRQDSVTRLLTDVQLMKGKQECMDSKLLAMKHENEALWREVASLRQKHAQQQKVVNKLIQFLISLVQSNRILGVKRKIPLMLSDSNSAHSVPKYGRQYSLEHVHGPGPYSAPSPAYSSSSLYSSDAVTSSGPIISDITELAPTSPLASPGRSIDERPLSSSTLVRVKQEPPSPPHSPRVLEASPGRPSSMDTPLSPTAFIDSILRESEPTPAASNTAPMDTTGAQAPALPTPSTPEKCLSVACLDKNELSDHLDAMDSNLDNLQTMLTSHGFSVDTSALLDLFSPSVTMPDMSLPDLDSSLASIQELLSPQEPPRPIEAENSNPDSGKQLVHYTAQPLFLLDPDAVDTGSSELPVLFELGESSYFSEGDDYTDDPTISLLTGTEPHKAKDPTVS

INS1 = experiment: beta cell apoptosis inhibitors, cytokine rescue, dose response, luminescence, retest (AID 449756); type: functional, cell-based; conditions: Rattus norvegicus;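 note: cell death triggered by IL-1 beta plus TNF-alpha plus IFN-gamma mixture; protective hits raise ATP signal compared with cytokine alone wells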
cells [10] = type: functional, cell-based
cells [11] = type: functional, cell-based; remark: listed apart in the source
Nonstructural protein 1 = Nonstructural protein 1 (Influenza A virus, UniProt Q194T2); type: functional, Influenza A virus (A/California/07/2009(H1N1))
[12] = Luminescence Cell-Based Dose Retest to Confirm Inhibitors of Cancer Stem Cells. [Related pubchem assays (depositor defined):AID2717, AID2721]; type: functional; conditions: Homo sapiens
[13] = HEp-2 cell cytotoxicity, dose response, cytotoxicity control for RSV inhibitor project, HTS (AID 2410); type: functional; conditions: human respiratory syncytial virus

Sequence of Nonstructural protein 1 (Q194T2 whole entry): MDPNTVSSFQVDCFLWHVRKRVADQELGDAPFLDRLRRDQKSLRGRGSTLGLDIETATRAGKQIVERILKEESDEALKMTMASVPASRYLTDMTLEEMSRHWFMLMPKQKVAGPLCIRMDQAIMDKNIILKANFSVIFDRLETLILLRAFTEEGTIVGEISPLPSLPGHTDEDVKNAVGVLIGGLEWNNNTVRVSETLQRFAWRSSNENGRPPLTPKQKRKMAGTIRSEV
Sequence of Luciferin 4-monooxygenase (P08659 whole entry): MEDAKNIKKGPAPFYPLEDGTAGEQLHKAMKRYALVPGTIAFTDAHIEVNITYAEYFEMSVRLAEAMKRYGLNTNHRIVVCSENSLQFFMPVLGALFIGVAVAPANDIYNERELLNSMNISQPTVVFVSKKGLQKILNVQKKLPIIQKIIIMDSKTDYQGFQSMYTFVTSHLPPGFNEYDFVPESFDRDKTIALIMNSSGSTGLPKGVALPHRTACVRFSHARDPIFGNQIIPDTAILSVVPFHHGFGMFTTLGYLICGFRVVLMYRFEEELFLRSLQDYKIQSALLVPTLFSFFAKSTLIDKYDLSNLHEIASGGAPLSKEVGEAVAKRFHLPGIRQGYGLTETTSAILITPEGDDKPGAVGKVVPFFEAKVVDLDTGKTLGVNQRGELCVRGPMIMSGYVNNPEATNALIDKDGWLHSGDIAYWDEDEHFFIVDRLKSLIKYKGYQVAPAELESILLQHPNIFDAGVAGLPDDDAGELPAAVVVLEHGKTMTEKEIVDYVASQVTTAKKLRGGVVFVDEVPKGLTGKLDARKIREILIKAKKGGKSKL
T3 sequence (P49327 whole entry, the tested form may be a part): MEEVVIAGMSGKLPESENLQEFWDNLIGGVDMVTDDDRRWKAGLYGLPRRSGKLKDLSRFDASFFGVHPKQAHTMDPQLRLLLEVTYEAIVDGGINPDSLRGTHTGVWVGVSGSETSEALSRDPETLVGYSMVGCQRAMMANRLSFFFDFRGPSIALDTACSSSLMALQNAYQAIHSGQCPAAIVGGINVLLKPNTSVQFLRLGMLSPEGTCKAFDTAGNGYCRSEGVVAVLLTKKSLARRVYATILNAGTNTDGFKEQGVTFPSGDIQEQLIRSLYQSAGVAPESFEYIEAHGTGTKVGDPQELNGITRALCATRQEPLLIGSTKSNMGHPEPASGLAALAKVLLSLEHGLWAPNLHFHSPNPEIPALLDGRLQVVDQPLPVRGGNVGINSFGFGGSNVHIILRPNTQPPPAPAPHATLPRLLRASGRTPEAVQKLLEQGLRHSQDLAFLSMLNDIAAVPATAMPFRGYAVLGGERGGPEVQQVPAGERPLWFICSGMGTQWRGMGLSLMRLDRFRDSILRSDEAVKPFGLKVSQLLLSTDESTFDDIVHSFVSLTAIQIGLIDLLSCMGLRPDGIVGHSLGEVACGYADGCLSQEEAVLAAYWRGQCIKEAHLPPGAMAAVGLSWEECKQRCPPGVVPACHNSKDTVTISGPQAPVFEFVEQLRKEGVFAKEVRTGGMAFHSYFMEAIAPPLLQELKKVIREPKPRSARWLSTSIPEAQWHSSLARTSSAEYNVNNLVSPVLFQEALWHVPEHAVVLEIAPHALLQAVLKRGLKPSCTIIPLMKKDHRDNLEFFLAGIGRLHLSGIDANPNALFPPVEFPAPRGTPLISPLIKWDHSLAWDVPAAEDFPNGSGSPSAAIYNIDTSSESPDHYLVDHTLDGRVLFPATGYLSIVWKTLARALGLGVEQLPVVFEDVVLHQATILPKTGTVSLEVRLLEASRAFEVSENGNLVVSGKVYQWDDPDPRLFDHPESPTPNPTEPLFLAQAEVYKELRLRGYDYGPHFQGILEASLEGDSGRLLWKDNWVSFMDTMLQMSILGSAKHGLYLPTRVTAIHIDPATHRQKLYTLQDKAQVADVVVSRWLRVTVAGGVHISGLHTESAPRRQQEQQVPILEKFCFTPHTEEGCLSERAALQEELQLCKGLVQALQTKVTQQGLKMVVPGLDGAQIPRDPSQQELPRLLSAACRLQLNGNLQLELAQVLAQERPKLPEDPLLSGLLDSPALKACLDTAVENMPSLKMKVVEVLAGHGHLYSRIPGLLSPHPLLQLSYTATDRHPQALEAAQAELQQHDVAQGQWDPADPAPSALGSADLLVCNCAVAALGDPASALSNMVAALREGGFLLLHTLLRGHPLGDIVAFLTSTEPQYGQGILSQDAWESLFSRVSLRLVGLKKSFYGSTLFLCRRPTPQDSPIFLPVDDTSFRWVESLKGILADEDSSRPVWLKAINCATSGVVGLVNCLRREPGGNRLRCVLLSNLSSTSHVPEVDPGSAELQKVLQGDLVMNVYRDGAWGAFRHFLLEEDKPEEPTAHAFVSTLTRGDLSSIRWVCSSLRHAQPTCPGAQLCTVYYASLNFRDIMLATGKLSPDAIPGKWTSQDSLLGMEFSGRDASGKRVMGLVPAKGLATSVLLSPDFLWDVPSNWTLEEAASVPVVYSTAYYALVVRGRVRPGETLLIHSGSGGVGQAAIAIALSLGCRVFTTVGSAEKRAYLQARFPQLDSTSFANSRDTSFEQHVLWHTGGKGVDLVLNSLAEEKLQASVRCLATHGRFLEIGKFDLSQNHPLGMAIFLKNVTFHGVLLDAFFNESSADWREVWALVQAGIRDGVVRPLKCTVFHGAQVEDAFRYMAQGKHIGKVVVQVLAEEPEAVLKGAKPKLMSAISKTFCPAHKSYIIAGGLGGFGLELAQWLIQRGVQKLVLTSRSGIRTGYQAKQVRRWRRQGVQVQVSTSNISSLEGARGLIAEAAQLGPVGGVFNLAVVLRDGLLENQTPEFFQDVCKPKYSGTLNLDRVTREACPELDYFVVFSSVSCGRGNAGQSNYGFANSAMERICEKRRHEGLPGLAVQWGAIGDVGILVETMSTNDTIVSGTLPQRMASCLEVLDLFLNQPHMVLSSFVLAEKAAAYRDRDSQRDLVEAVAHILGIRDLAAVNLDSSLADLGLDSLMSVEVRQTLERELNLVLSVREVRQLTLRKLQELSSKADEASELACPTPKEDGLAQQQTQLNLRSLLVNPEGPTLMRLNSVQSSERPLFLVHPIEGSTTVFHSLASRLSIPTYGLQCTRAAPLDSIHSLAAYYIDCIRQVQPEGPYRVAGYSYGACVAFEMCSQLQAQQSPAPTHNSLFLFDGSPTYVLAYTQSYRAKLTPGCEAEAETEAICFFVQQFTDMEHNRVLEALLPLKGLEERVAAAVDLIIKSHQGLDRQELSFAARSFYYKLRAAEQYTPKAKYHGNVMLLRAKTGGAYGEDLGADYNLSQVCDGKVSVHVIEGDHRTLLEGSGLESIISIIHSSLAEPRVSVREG
Sequence of Cytochrome P450 2C19 (P33261 whole entry): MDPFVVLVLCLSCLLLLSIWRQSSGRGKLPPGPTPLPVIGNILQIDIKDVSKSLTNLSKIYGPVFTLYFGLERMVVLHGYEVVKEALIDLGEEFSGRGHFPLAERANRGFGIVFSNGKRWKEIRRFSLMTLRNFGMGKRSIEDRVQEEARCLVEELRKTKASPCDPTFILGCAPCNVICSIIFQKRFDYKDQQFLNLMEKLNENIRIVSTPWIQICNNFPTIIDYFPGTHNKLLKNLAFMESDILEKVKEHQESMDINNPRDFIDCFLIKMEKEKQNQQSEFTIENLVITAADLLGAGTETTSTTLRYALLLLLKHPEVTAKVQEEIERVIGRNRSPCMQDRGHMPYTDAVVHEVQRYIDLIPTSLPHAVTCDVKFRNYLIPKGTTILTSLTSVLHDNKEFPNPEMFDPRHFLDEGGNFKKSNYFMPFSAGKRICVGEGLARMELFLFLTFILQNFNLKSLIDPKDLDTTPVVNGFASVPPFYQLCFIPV

C[C@]12CCC(=O)C=C1CC[C@@H]1[C@@H]2[C@@H](O)C[C@]2(C=O)[C@@H](C(=O)CO)CC[C@@H]12 [ALDOSTERONE]
EC50 [1]: > 120 µM (not active)
EC50 [2]: > 120 µM (not active)
EC50 (H4): > 120 µM (not active)

[O-][n+]1cc(-c2cc3ccccc3o2)[n+]([O-])c2c1CCCC2
EC50 [1]: > 60 µM (not active)
EC50 [2]: 8.68 µM (active)
EC50 (H4): 2.05 µM (active)

COc1ccc(OC)c(NC(=O)CS(=O)(=O)Cc2nc(-c3ccccc3C)oc2C)c1
EC50 [3]: > 112 µM (not active)
EC50 [4]: > 112 µM (not active)

Cc1nc(S(=O)(=O)N2CCOCC2)c(C#N)c(C)c1Cl
EC50 [1]: 10.7 µM (active)
EC50 [2]: 55.7 µM (active)
EC50 (H4): > 120 µM (not active)
AC50 (Cytochrome P450 2C19): inconclusive
AC50 (Cytochrome P450 1A2): 1 µM (inconclusive)

CCCCOc1ccc2c(c1)/C(=C(\C(Cl)=C(Cl)Cl)[N+](=O)[O-])N2
IC50 [5]: > 47.1 µM (inactive)
EC50 [6]: 37.9 µM (active)

O=C(CSc1cn(Cc2ccccc2)c2ccccc12)N1CCOCC1
EC50 [1]: 20.9 µM (active)
EC50 [2]: 19.8 µM (active)
EC50 (H4): 16.8 µM (active)

Cc1ccc(C(=O)Nc2ccnc(-c3cccnc3)n2)cc1
EC50 [1]: 13.3 µM (active)
EC50 [2]: 16.1 µM (active)
EC50 (H4): 15.4 µM (active)

CCNc1ccc(S(=O)(=O)N(C)C)cc1NCC(=O)Nc1ccc(F)c(Cl)c1
IC50 (Fatty acid synthase [7]): 12.4 µM (active)
IC50 (Fatty acid synthase [8]): 18.2 µM (active)

Cn1c(=O)c2cc3ccc(Cl)cc3nc2n(C)c1=O
IC50 [5]: > 47.1 µM (inactive)
EC50 [6]: > 53 µM (inactive)

CCOC(=O)C1CCN(C(=O)CCc2nnc3ccc(NCc4ccco4)nn23)CC1
EC50 [3]: > 112 µM (not active)
EC50 [4]: > 112 µM (not active)

O=C(COC(=O)c1ccccc1-n1cnnn1)c1ccc(F)cc1
EC50 [1]: 4.44 µM (active)
EC50 [2]: 7.61 µM (active)
EC50 (H4): 31.3 µM (active)
EC50 [9]: 50.2 µM (active)

O=C(COc1ccc(Br)cc1)N1CCN(Cc2c[nH]c3ccccc23)CC1
AC50 (INS1): 3.34 µM (active)

COc1ccc(NC(=O)c2nc3nc(C)cc(C(F)F)n3n2)cc1OC
EC50 [3]: 18.9 µM (active)
EC50 [4]: > 112 µM (not active)

Cc1cc(/C(O)=C(/C([S-])=Nc2ccc(F)cc2)[n+]2ccccc2)c(C)n1-c1ccc(F)cc1
EC50 [1]: > 120 µM (not active)
EC50 [2]: 16.1 µM (active)
EC50 (H4): 21.1 µM (active)

CCCc1cc(O)nc(SCC(=O)N(CCC#N)c2ccc3c(c2)OCCO3)n1
IC50 [5]: > 47.1 µM (inactive)
EC50 [6]: > 53 µM (inactive)

O=C(N/N=C/c1c(O)ccc2ccccc12)c1ccc(CO)nc1
EC50 (cells [10]): 10.8 µM (active)
EC50 (cells [11]): > 350 µM (not active)
IC50 (Nonstructural protein 1): 10.6 µM (active)

CCOc1ccc(CNC(=O)CCC(=O)N2Cc3cccc(OC)c3Oc3ncccc32)cc1
IC50 [5]: > 47.1 µM (inactive)
EC50 [6]: > 53 µM (inactive)

COc1ccc(/C=C/C(=O)NC(=S)Nc2ccc(S(=O)(=O)Nc3cc(OC)ncn3)cc2)cc1
IC50 [5]: > 47.1 µM (inactive)
EC50 [6]: > 53 µM (inactive)

O=C(CN1CC(=O)Oc2ccccc21)OCC(=O)c1ccccc1
IC50 (Nonstructural protein 1): 1.47 µM (active)

Cn1sc(NC(=O)c2cccc(Cl)c2)nc1=O
EC50 [1]: 12.8 µM (active)
EC50 [2]: 7.11 µM (active)
EC50 (H4): > 120 µM (not active)

CCn1cc(C(=O)NCc2ccco2)c(=O)c2cc(S(=O)(=O)N3CCC(C)CC3)ccc21
IC50 (Fatty acid synthase [7]): 2.6 µM (active)
IC50 (Fatty acid synthase [8]): 3.21 µM (active)

CCOC(=O)c1c(NC(=O)/C=C/c2ccc3c(c2)OCO3)sc(C)c1CC
EC50 [3]: > 112 µM (not active)
EC50 [4]: > 112 µM (not active)
AC50 [12]: 1.04 µM (active)
AC50 (Cytochrome P450 1A2): 12.6 µM (inconclusive)

CN(C)c1ccc(C=C2C=CC=C2)cc1
IC50 (Nonstructural protein 1): 31.5 µM (active)

Cc1ccc(CN(C(=O)c2csnn2)C(C(=O)NC2CCCC2)c2ccco2)cc1 (configuration not stated)
EC50 [3]: > 112 µM (not active)
EC50 [4]: > 112 µM (not active)

CC(C)(C)c1ccc(COC(=O)CN2C(=O)NC3(CCCC3)C2=O)cc1
IC50 (Fatty acid synthase [7]): 4.84 µM (active)
IC50 (Fatty acid synthase [8]): 5.17 µM (active)

Cc1cccn2c(=O)c(/C=C(\C#N)C(N)=O)c(N3CCN(c4cccc(Cl)c4)CC3)nc12
IC50 (Nonstructural protein 1): > 100 µM (active)

COc1cccc(C=NNC(=O)C[n+]2ccccc2)c1O
IC50 (Nonstructural protein 1): 10.4 µM (active)

COc1ccc(-c2c(C#Cc3ccccc3)c3ccccc3n2C)cc1
CC50 [13]: 44 µM (active)
EC50 [1]: 19.6 µM (active)
EC50 [2]: 22.1 µM (active)
EC50 (H4): 43.1 µM (active)

CCCCN(C=O)c1c(CC)nc2c(OCc3ccc(Cl)cc3Cl)cccn12
IC50 (Fatty acid synthase [7]): 6.01 µM (active)
IC50 (Fatty acid synthase [8]): 8.19 µM (active)

Cc1c([N+](=O)[O-])cc(S(=O)(=O)Nc2ccc(-c3ccc(N4CCCC4)nn3)cc2)cc1[N+](=O)[O-]
CC50 [13]: > 50 µM (active)
IC50 (Fatty acid synthase [7]): 0.867 µM (active)
IC50 (Fatty acid synthase [8]): 0.524 µM (active)

COc1cccc(/C=N/NC(=O)CN2CC(c3ccccc3)CC2=O)c1O (configuration not stated)
AC50 (INS1): 6.51 µM (active)

O=C(COC(=O)c1cc(F)c(F)cc1Cl)NC1CCCCCC1
IC50 (Fatty acid synthase [7]): 13.1 µM (active)
IC50 (Fatty acid synthase [8]): 6.86 µM (active)

CCc1ccc(NC(=O)CSc2nc(N)c(NC(=O)c3ccc(F)c(F)c3)c(O)n2)cc1
IC50 [5]: > 47.1 µM (inactive)
EC50 [6]: > 53 µM (inactive)

O=C(CN1C(=O)NC2(CCCCCC2)C1=O)c1ccccc1
EC50 [3]: > 112 µM (not active)
EC50 [4]: > 112 µM (not active)

CCOc1ccc2[nH]c(SCC3CC3(Cl)Cl)nc2c1 (configuration not stated)
EC50 [1]: 0.506 µM (active)
EC50 [2]: 29.7 µM (active)
EC50 (H4): 30.2 µM (active)
